According to ChEMBL document CHEMBL3886468, “Cyclohexylamine derivatives having β2 adrenergic agonist and M3 muscarinic antagonist activities” (2016):
pIC50: −log10 of the molar value.

Biological target: Muscarinic acetylcholine receptor M3 (Homo sapiens, UniProt P20309)
Assay: Muscarinic Receptor Binding Assay: The study of binding to human muscarinic M1, M2, M3, M4 and M5 receptors was performed using commercial membranes (Perkin Elmer) prepared from CHO-K1 cells. Radioligand binding experiments were conducted in 96 polypropylene well plates in a total volume of 200 ul. All reagents were dissolved in assay binding buffer (PBS with calcium and magnesium, SIGMA), except compounds that were dissolved in DMSO 100%. Non-specific binding (NSB) was measured in the presence of 1 uM atropine. [3H]-NMS was used as the radioligand at a concentration of 1 nM for M2, M3 and M5 and 0.3 nM for M1 and M4. [3H]-NMS and antagonists were incubated with membranes that express human muscarinic receptors M1, M2, M3, M4 and M5 at concentrations of 8.1, 10, 4.9, 4.5 and 4.9 ug/well, respectively. After an incubation period of two hours with gentle shaking, 150 ul of the reaction mix were transferred to 96 GF/C filter plates (Millipore), previously treated with wash buffer.
Type: cell-based

Sequence of Muscarinic acetylcholine receptor M3 (P20309 whole entry): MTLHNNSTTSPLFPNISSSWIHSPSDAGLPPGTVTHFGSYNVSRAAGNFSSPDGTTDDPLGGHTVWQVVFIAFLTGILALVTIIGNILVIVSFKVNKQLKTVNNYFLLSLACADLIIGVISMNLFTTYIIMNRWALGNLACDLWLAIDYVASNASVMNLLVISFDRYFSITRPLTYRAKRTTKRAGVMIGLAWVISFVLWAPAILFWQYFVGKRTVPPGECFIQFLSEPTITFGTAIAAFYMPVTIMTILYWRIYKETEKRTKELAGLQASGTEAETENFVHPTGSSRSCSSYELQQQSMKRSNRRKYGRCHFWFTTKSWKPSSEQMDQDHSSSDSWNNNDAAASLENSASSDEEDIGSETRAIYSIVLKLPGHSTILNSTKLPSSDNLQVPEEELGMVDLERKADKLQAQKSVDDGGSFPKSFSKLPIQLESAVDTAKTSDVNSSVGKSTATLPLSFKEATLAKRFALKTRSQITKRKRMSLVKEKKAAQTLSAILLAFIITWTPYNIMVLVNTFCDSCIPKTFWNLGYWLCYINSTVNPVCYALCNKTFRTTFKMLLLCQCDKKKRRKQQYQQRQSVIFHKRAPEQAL

Q: `CN(CCCn1nnc2cc(CNC[C@H](O)c3ccc(O)c4c3OCC(=O)N4)ccc21)[C@H]1CC[C@H](OC(=O)[C@](O)(c2cccs2)C2CCCC2)CC1` was tested. Which pIC50 did it give?
A: Its pIC50 is 9.40.
